Measurements reported in patent publication EP0449955B1, “SYNTHETIC HIV-LIKE PEPTIDES, THEIR COMPOSITIONS AND USES” (CLARITY TECHNOLOGIES INCORPORATED, priority 1988, dated 1996).

Tested on: antibodies to HIV-2
Assay: EIA of HIV-2 peptide-BSA conjugates with macaque sera
Format: binding
Conditions: macaque sera containing or not containing antibodies to HIV-2, Figure 7
Procedure: The synthetic peptides of Figures 1-8 were reduced with 10mM DTT, or with immobilized DTT (Reductacryl, Calbiochem, San Diego, California, U.S.A., 10 mg Reductacryl per mg peptide) overnight at 4°C, pH8 in 10mM borate or other buffers depending upon peptide solubility, with gentle mixing. KLH was dissolved at a concentration of 10-30 mg/ml in 10 mM phosphate buffer pH 7.2., and BSA was dissolved at a concentration of 20-80 mg/ml for treatment with heterobifunctional linkers MBS (m-Maleimidobenzoyl-N-hydroxysuccinimide ester), SPDP [N-Succinimidyl 3-(2 pyridyldithio)propionate], or Sulfo-SMCC [Sulfo-Succinimidyl 4(N-maleimidomethyl)-cyclohexane-1-carboxylate]. The heterobifunctional linkers were added to the protein solutions in a molar excess of linker to BSA of 100, or of linker to KLH of 1000. MBS was dissolved in DMF at 10mg/ml, SPDP was dissolved in absolute ethanol at 10mg/ml and each of these was added dropwise with mixing into the protein solution, whereas the Sulfo-SMCC dry powder was dissolved into the protein solution. Each protein-linker mixture was reacted at room temperature for 15 minutes to 1 hour and then free linker was separated from BSA-linker or KLH-linker by gel chromatography with Sephadex G25 using 50mM phosphate, pH 6 for KLH-MBS, 10mM acetate, 100 mM Nacl, pH 4.6 for BSA-SPDP, or 100 mM phosphate, 1 mM EDTA, pH 6.5 for BSA-SMCC. The reduced peptides were separated from DTT by Sephadex G10 column chromatography when soluble DTT was used, or by centrifugation followed by filtration through a 0.22 micron filter when Reductacryl was used. Reduced peptides were combined with linker treated KLH or BSA in molar ratios of 100-1000 peptide/KLH-MBS, 1-50 peptide/BSA-SMCC, and 0.1-10 peptide/BSA-SPDP. Each reduced peptide was added to the linker-treated protein with mixing, overlayed with N₂, and then mixed gently at room temperature for one hour, and then overnight at 4°C. The SMCC-BSA conjugates were further treated with a 1 mM final concentration of mercaptoethylamine for 4 hours, and then dialyzed overnight against 100 volumes of buffer (20mM phosphate, 1 mM EDTA, 0.05% sodium azide, pH 6.5) at 4°C. All other conjugates were adjusted to a final concentration of sodium azide of 0.05%. Optimal molar ratios of peptide/protein for the conjugates were determined by solubility and antigenicity (as evaluated by EIA).
The free peptides or peptide-protein conjugates of Figures 1-13 were initially screened for immunoreactivity by coating each well of polystyrene microtiter EIA plates (Costar, Cambridge, Massachusetts, U.S.A.) with 0.2 ml amounts of concentrations of 5-50 micrograms/ml peptide in Tris buffer, 10 mM, pH 8.0, at 4°C overnight. […]

How did the “discrimination of positive from negative samples” value turn out when ARLNSWGCAFRQVCHGC [2S25] was run?
The value was “most favorable performances”.
